Measurements taken from patent publication US20100056564A1, “Association of an anti-atherothrombotic agent and an anti-platelet-aggregation agent” (LES LABORATOIRES SERVIER, priority 2003, published 2010).

Test system: collagen-induced platelet aggregation
Assay: Inhibition of collagen-induced platelet aggregation ex vivo
Assay type: in vivo, humans
Details: collagen 5 μg/ml; citrated platelet-rich plasma (PRPc), aggregometer; oral administration to 18 volunteers; compound A 10 mg, clopidogrel 75 mg
Method: Measurement of the Inhibition of Collagen-Induced Platelet Aggregation:
10 mg of compound A and 75 mg of clopidogrel were administered orally for three days to 18 volunteers previously treated with 75 mg of clopidogrel for 7 days. The effect of the association of compound A and clopidogrel was compared with the effects of compound A and clopidogrel administered separately.
In the course of the test, the percentage inhibition of platelet aggregation ex vivo induced by collagen (5 μg/ml) was calculated by measuring the platelet aggregation on citrated platelet-rich plasma (PRPc) with the aid of an aggregometer.

## COC(=O)[C@H](c1ccccc1Cl)N1CCc2sccc2C1 [clopidogrel]
  percentage inhibition of platelet aggregation ex vivo induced by collagen: 11%
